The test concerns the target unphosphorylated-BTK kinase domain (UP-BTK), GST-tagged human BTK (389-659aa) (Homo sapiens (Human), UniProt Q06187). Briefly: BTK kinase Lanthascreen binding assay. Particulars: unphosphorylated-BTK kinase domain, 60 minutes incubation, 50 nM Tracer 236; pIC50 = negative log of the IC50 in molar. In short, it runs like this: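 Values are pIC50, i.e. negative log of IC50 in molar, derived from concentration–response fitting. Each compound competes with a fluorescently labelled tracer for the unphosphorylated kinase domain.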

Chain of unphosphorylated-BTK kinase domain (UP-BTK), GST-tagged human BTK (389-659aa) (Q06187 389-659): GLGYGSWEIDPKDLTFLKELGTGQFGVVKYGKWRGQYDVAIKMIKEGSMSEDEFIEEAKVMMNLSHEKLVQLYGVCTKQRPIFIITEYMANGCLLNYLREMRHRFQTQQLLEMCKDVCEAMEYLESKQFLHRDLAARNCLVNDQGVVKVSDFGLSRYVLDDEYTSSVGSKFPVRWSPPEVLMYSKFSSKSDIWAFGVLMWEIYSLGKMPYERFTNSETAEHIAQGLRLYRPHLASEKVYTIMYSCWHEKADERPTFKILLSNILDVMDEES

`Cc1ccc(N2C(=O)Nc3c(C(=O)N[C@@H]4CCCNC4)sc4nccc2c34)cc1` [Example 952, (R)-4-Oxo-N-(piperidin-3-yl)-5-(p-tolyl)-4,5-dihydro-3H-1-thia-3,5,8-triazaacenaphthylene-2-carboxamide]: the “BTK_I_binding pIC50” value came to 5.1.

Regarding `O=C(N[C@@H]1CCCNC1)c1sc2nccc3c2c1NC(=O)N3c1ccc(F)cc1` [Example 953, (R)-5-(4-Fluorophenyl)-4-oxo-N-(piperidin-3-yl)-4,5-dihydro-3H-1-thia-3,5,8-triazaacenaphthylene-2-carboxamide], the “BTK_I_binding pIC50” value is 5.1.

On to `CC(C)(C)c1ccc(N2C(=O)Nc3c(C(=O)N[C@@H]4CCCNC4)sc4nccc2c34)cc1` [Example 954, (R)-5-(4-(tert-Butyl)phenyl)-4-oxo-N-(piperidin-3-yl)-4,5-dihydro-3H-1-thia-3,5,8-triazaacenaphthylene-2-carboxamide], for which the “BTK_I_binding pIC50” value is recorded as 5.0.

As for `Cc1cc(N2C(=O)Nc3c(C(=O)N[C@@H]4CCCNC4)sc4nccc2c34)ccc1OC(C)C` [Example 955, (R)-5-(4-Isopropoxy-3-methylphenyl)-4-oxo-N-(piperidin-3-yl)-4,5-dihydro-3H-1-thia-3,5,8-triazaacenaphthylene-2-carboxamide], the “BTK_I_binding pIC50” value was under 5.

Consider `Nc1ccc(N2C(=O)Nc3c(C(=O)N[C@@H]4CCCNC4)sc4nccc2c34)cc1` [Example 956, (R)-5-(4-Aminophenyl)-4-oxo-N-(piperidin-3-yl)-4,5-dihydro-3H-1-thia-3,5,8-triazaacenaphthylene-2-carboxamide], for which the “BTK_I_binding pIC50” value was under 5.

In the case of `Cc1c(Oc2ccccc2)cccc1N1C(=O)Nc2c(C(=O)N[C@H]3CCCN(C(=O)/C(C#N)=C/C4CC4)C3)sc3nccc1c23` [Example 957, (S,E)-N-(1-(2-Cyano-3-cyclopropylacryloyl)piperidin-3-yl)-5-(2-methyl-3-phenoxyphenyl)-4-oxo-4,5-dihydro-3H-1-thia-3,5,8-triazaacenaphthylene-2-carboxamide], the “BTK_I_binding pIC50” value was under 5.

Turning to `C=CC(=O)N1CC[C@@H](NC(=O)c2sc3nccc4c3c2NC(=O)N4c2ccc(Oc3cccnn3)nc2C)C1` [Example 974, (R)—N-(1-Acryloylpyrrolidin-3-yl)-5-(2-methyl-6-(pyridazin-3-yloxy)pyridin-3-yl)-4-oxo-4,5-dihydro-3H-1-thia-3,5,8-triazaacenaphthylene-2-carboxamide], the “BTK_I_binding pIC50” value came out at 5.6.

On to `C=CC(=O)N1CCC[C@@H](NC(=O)c2sc3nccc4c3c2NC(=O)N4c2ccc(Oc3cccnn3)nc2C)C1` [Example 975, (R)—N-(1-Acryloylpiperidin-3-yl)-5-(2-methyl-6-(pyridazin-3-yloxy)pyridin-3-yl)-4-oxo-4,5-dihydro-3H-1-thia-3,5,8-triazaacenaphthylene-2-carboxamide], for which the “BTK_I_binding pIC50” value is reported as 5.0.

Source of the values: patent US10800792B2, “Inhibitors of Bruton's tyrosine kinase and method of their use” (JANSSEN PHARMACEUTICA NV, priority 2015, dated 2020).
